Data on one molecule can be found in patent publication US10023590B2, “Substituted pyridine compounds having herbicidal activity” (BASF SE, priority 2014, dated 2018).

By pest or weed control is commonly meant how far the test organism was held down.

What all share (assay type): in vivo
The test system of one series is Abutilon theophrasti. Nature of the series: Greenhouse post-emergence herbicidal activity, ABUTH. Particulars: ABUTH, scale 0 to 100. An outline of the steps: (§1)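 Plants sown per species in loamy sand (~3.0% humus), grown to 3 to 15 cm, then sprayed with active ingredient suspended or emulsified in water. Held at 10-25° C. or 20-35° C. by species for 2 to 4 weeks; damage scored 0 (none) to 100 (complete destruction of aerial parts).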

Another series deals with Oryza sativa. Kind of series: Greenhouse post-emergence herbicidal activity on crop ORYSA (rice). Conditions: ORYSA (rice, crop), 0.031 kg/ha, scale 0 to 100. The gist of the method: as §1
The next series has as its system Ambrosia artemisiifolia. Nature of the series: Greenhouse post-emergence herbicidal activity, AMBEL. Conditions: scale 0 to 100. The gist of the method: as §1
A further series concerns Echinocloa crus-galli. Kind of series: Greenhouse post-emergence herbicidal activity, ECHCG. Particulars: Echinochloa crus-galli, ECHCG, scale 0 to 100. An outline of the steps: as §1
The subject of the next series is Amaranthus retroflexus. Kind of series: Greenhouse post-emergence herbicidal activity, AMARE. Conditions: AMARE, 1 kg/ha, scale 0 to 100. The gist of the method:
as §1

Another series has as its system Chenopodium album. Nature of the series: Greenhouse post-emergence herbicidal activity, CHEAL. Particulars: scale 0 to 100. The gist of the method:
as §1

A further series deals with Zea mays. Nature of the series: Greenhouse post-emergence herbicidal activity on crop ZEAMX (corn, maize). Particulars: ZEAMX (corn, crop), scale 0 to 100. More on the design: key: 0 = no damage/normal growth, 100 = no emergence or complete destruction. An outline of the steps: as §1
The next series has as its system Panicum miliaceum. Nature of the series: Greenhouse post-emergence herbicidal activity, PANMI. Particulars: 0.031 kg/ha, scale 0 to 100. An excerpt:
The culture containers used were plastic flowerpots containing loamy sand with approximately 3.0% of humus as the substrate. The seeds of the test plants were sown separately for each species.
For the post-emergence treatment, the test plants were first grown to a height of 3 to 15 cm, depending on the plant habit, and only then treated with the active ingredients which had been suspended or emulsified in water. For this purpose, the test plants were either sown directly and grown in the same containers, or they were first grown separately as seedlings and transplanted into the test containers a few days prior to treatment.
Depending on the species, the plants were kept at 10-25° C. or 20-35° C., respectively.
The test period extended over 2 to 4 weeks. During this time, the plants were tended, and their response to the individual treatments was evaluated.
Evaluation was carried out using a scale from 0 to 100. 100 means no emergence of the plants, or complete destruction of at least the aerial moieties, and 0 means no damage, or normal course of growth. A good herbicidal activity is given at values of at least 70 and a very good herbicidal activity is given at values of at least 85.

For `CN(c1c(Cl)ccc(C2=C(O)c3ncccc3CS2(=O)=O)c1Cl)S(=O)(=O)C1CC1` [I-27, N-[2,6-dichloro-3-(8-hydroxy-6,6-dioxo-5H-thiopyrano[4,3-b]pyridin-7-yl)phenyl]-N-methyl-cyclopropanesulfonamide], the pest or weed control at 125 g/ha was 80% in the series with Abutilon theophrasti (0.125 kg/ha), 98% in the series with Echinocloa crus-galli (0.125 kg/ha) and 100% with Chenopodium album (0.125 kg/ha). Besides, the values for the pest or weed control at 1000 g/ha in the series on Abutilon theophrasti (1 kg/ha), in the series with Echinocloa crus-galli (1 kg/ha) and in the series on Amaranthus retroflexus were 95%, 98% and 100%, respectively. Besides, the Herbicidal activity is listed as 40 in the series on Oryza sativa; 70 with Ambrosia artemisiifolia (0.031 kg/ha); 75 in the series with Ambrosia artemisiifolia (0.063 kg/ha); 15 with Zea mays (0.031 kg/ha); 20 in the series with Zea mays (0.063 kg/ha); 75 in the series on Panicum miliaceum. For the same molecule, the pest or weed control at 63 g/ha with Echinocloa crus-galli (0.063 kg/ha) stood at 98%; in the series with Chenopodium album (0.063 kg/ha), 100%. The same molecule returned a pest or weed control at 31 g/ha in the series on Chenopodium album (0.031 kg/ha) of 100%.
